Assay [1] deals with T1, Aβ42 monomer (Homo sapiens, UniProt P05067).
T1 construct: Small red spheres mark the Aβ42 peptide C-terminal residue, A42; purchased Sigma-Aldrich Corp
Description: Sterol binding to Aβ42, equilibrium DHE fluorescence titrations. Here is the method:
CH ([27]) and CS ([28]) increase the rate of Aβ aggregation and CH is thought to stabilize fibrils ([29]); yet, the affinities of CH and its metabolites for the Aβ peptide monomer have not been determined. Here, CH and CS affinities for the Aβ42 monomer are established using dehydroergosterol (DHE)—a fluorescent CH analog ([30]) used as a competitive probe to determine CH and CS affinities. Aβ42 monomers were prepared as previously described ([31]) (see Methods). […] Under this condition, Aβ42 essentially quantitatively binds DHE until its concentration exceeds that of DHE, which results in a breakpoint in the titration curve that yields the stoichiometry. The arrow seen descending from the breakpoint indicates a stoichiometry of 1:1, which agrees well with the ∼1:1 CH-metabolite:Aβ stoichiometry estimated from analysis of senile plaques micro-dissected from AD-patient brain tissue ([15]).
Figure 1 Sterol binding to Aβ42at equilibrium.A, DHE affinity for monomeric Aβ4_2. […] Binding was detected via the binding-induced 4.4 (±0.2)-fold increase in DHE fluorescence (λex = 325 nm, λem= 375 nm). Fluorescence intensity, I, is plotted relative to the intensity at zero titrant, I0. Titrations were performed independently in triplicate and the line passing through the data is the least-squares fit to a single-binding-site model. B, Aβ42:DHE stoichiometry. […] C. DHE fluorescence (λex = 325 nm, λem = 375 nm) is plotted versus [Aβ42]/[DHE]. The line descending from the titration breakpoint indicates a stoichiometry of 1:1. C and D, CH and CS affinities. Affinities were determined by competitive binding versus DHE. […] C, was titrated with CH (5.0–500 nM, 0.05–5 × Kd) or CS (5.0–500 nM, 0.15–[…] × Kd). Binding was monitored via the decrease in DHE fluorescence (λex = 325, λem = 375) caused by DHE displacement from Aβ42. Controls ensured that <2.0% of Aβ42 oligomerized during the measurement. Titrations were performed in triplicate and averaged. The solid lines through the data represent least-squares fits to a competitive single-binding-site model. C and D, insets highlight the behavior of the titration over ligand concentrations that span their reported CMCs (indicated by arrows). […]
DHE/Aβ42 binding interactions were monitored via the binding-induced 4.4-fold change in DHE fluorescence (λex = 325 nm, λem= 375 nm). […]
The affinities of CH and CS for Aβ42 were determined in competitive binding studies versus DHE. Binding was detected via the fluorescence decrease (λex= 325 nm, λem = 375 nm) caused by DHE displacement. […] Imax = (fraction DHE-bound to peptide at zero competitive ligands)/4.4 — the fold fluorescence change associated with DHE dissociation, see Figure 1A.

Assay [2] addresses T2, Aβ42 (Homo sapiens, UniProt P05067).
T2 construct: Small red spheres mark the Aβ42 peptide C-terminal residue, A42; purchased Sigma-Aldrich Corp
Description: Aβ42 fibril formation monitored by ThT fluorescence, NEF model fitting. Format: biochemical. As to conditions: for Nucleation rate constant, NEF model: NEF fit of fibril formation progress curves; for Nucleation rate constant, NEF model / Elongation rate constant, forward / Elongation rate constant, reverse / Fragmentation rate constant: Aβ42 1.0 μM, ligand at saturation; for Elongation rate constant, forward / Elongation rate constant, reverse / Fragmentation rate constant: NEF fit; for increase of nucleation rate constant relative to the unliganded peptide: from NEF nucleation rate constants. An excerpt: Reactions were initiated by the addition of ligand (at saturation) or buffer (control) to a fresh solution of Aβ42 and ThT (see Fig. 3 Legend). Such progress curves are often fit using a generalized sigmoidal function and compared on the basis of lag-time length and elongation-phase slope. Here, progress curves are fit numerically to the Nucleation-Elongation-Fragmentation (NEF) model ([51], [52]), using Copasi ([53]). Numerical modeling allows one to assess whether a particular mechanism adequately predicts experimental behavior and provides rate constants for the steps of the mechanism that can be compared across peptide•ligand combinations to identify where and to what extent ligands induce change.
Figure 3 Formation of CH•, CS•, and unliganded Aβ42fibrils.A, fibril formation. Fibril formation was monitored via the fluorescence increase (λex = 450 nm, λem = 482 nm) associated with the binding of ThT, which binds Aβ oligomers ≥5-mers. […] C. Progress curves were performed in triplicate, averaged, and fit numerically using the NEF polymerization model (see Results and discussion).
The NEF model assumes a slow, energetically unfavorable event generates a polymerization nucleus that rapidly adds monomers (at the elongation rate) to form oligomers. The reaction accelerates in a geometric fashion as oligomer fragmentation produces new nuclei. The tenets of the model are embodied in Equations (1), (2), (3), which form the basis of the Copasi model ([53]).(1) 2m⇆knucrevknucforn (2) m+n⇆kelrevkelforo+n (3) o→kfragn where m is monomer concentration, n is the concentration of surfaces capable of adding monomer, and o is the concentration of peptides that are in the interior of the polymer and thus cannot add monomers. knuc, kel, and kfrag are the nucleation, elongation, and fragmentation rate constants.
Fibril formation was monitored via the binding-induced change in ThT fluorescence (λex = 450 nm, λem = 482 nm) ([76]). […] C. Reagents (peptide, CH, CS, and ThT) were prepared immediately prior to use. CH and CS were solubilized in neat DMSO. Progress curves were determined in triplicate, and data were fit using the Nucleation-Fragmentation-Elongation (NEF) model (see Results and discussion).

Where “and” joins values, the source holds several entries; their conditions need not be identical. Identical values can stand only once. Like-named read-outs stand apart in the source and are kept apart here.

T1 sequence (P05067 672-713 limits assumed): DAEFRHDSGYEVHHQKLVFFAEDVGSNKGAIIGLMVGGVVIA
T2 sequence (P05067 672-713 limits assumed): as above

As a reminder, the Kd is a measure of binding affinity in units of concentration. As to `CC(C)CCC[C@@H](C)[C@H]1CC[C@H]2[C@@H]3CC=C4C[C@@H](OS(=O)(=O)O)CC[C@]4(C)[C@H]3CC[C@]12C` [CS, cholesterol 3-sulfate], the Kd in assay [1] was found to be 36 nM. Also, the “enhanced affinity of CS over CH for Aβ42” value in assay [1] (ratio of Kd values) worked out at 3.4 fold. Further, the “CS/CH nucleation rate constant ratio, experimental” value in assay [2] (CS•Aβ42 versus CH•Aβ42, calculated using Table 2 nucleation rate constants) is 261 fold and 260 fold. In assay [2], the “Nucleation rate constant, NEF model” value was 1.8 (0.3) × 10^−11 nM^−1 s^−1; the “Elongation rate constant, forward” value is on record as 860 (60) μM^−1 s^−1; the “Elongation rate constant, reverse” value is listed as 85 (1) s^−1; the Fragmentation rate constant was 4.3 (0.7) × 10^−11 s^−1. Moreover, the “increase of nucleation rate constant relative to the unliganded peptide” value in assay [2] is given as ~13,000 fold.
As for `CC(C)CCC[C@@H](C)[C@H]1CC[C@H]2[C@@H]3CC=C4C[C@@H](O)CC[C@]4(C)[C@H]3CC[C@]12C` [CH, cholesterol], the Kd in assay [1] (determined in DHE competition studies, DHE 10 nM, Aβ42 20 nM, K2PO4 50 mM, pH 7.4, 25 °C, read-out: Kd) was determined as 120 nM. Moreover, in assay [2], the “Nucleation rate constant, NEF model” value is 6.9 (0.2) × 10^−14 nM^−1 s^−1; the “Elongation rate constant, forward” value was 830 (20) μM^−1 s^−1; the “Elongation rate constant, reverse” value is listed as 98 (1) s^−1; the Fragmentation rate constant is 5.6 (0.3) × 10^−11 s^−1. Besides, in assay [2], the “increase of nucleation rate constant relative to the unliganded peptide” value is about 49 fold.

Source of the values: PMC10704437, “Sterol-activated amyloid beta fibril formation” (The Journal of Biological Chemistry, 2023).
